# Measured values reported in patent publication US20140093459A1, “NOVEL COMPOUND” (DSM IP ASSETS B.V., priority 2009, published 2014).
# How the values were obtained:
# [1] = Comparative: solubility of BMDBM in 1:1 (w/w) mixture of C12-15 alkyl benzoate and a polymeric or solid UV-filter (HPLC after 1 month at RT)
# Text: Where necessary the mixture was centrifuged in order to obtain a clear supernatant.
# [2] = Solubility of BEMT in 1:1 (w/w) mixture C12-15 alkyl benzoate/PG-UVAB1 (dissolving, storage 1 month at RT); format: physicochemical
# [3] = Solubility of BMDBM or BEMT in C12-15 alkyl benzoate (saturation, HPLC of supernatant); format: physicochemical
# [4] = Reduction of solvent necessary to dissolve solid UV-filter; format: physicochemical
"Solubility of BMDBM in C12-15 alkyl benzoate/UV-filter 1:1 ([1]; 200 mg BMDBM with 1000 mg of 1:1 (w/w) mixture, supernatant HPLC after 1 month at RT) [wt.-%]",Δ solubility related to cosmetic solvent (BMDBM) ([1]; 1:1 mixture C12-15 alkyl benzoate/UV-filter) [wt.-%],Δ solubility (BMDBM) ([1]; 1:1 mixture with UV-filter versus C12-15 alkyl benzoate alone) [wt.-%],"re-crystallization on storage ([2]; 200 mg BEMT in 800 mg 1:1 C12-15 alkyl benzoate/PG-UVAB1, stored 1 month at RT)","solubility of BEMT in 1:1 (w/w) mixture of C12-15 alkyl benzoate/PG-UVAB1 ([2]; 200 mg BEMT in 800 mg of the mixture, 1 month at RT)",Solubility of BEMT in C12-15 alkyl benzoate/PG-UVAB1 1:1 ([2]; 1:1 mixture with PG-UVAB1) [wt.-%],Δ solubility related to cosmetic solvent (BEMT) ([2]; 1:1 mixture with PG-UVAB1),Δ solubility (BEMT) ([2]; 1:1 mixture with PG-UVAB1 versus C12-15 alkyl benzoate alone),"Increase of solubility of BEMT ([2]; BEMT, 1:1 mixture with PG-UVAB1 versus C12-15 alkyl benzoate alone)",Solubility in C12-15 alkyl benzoate ([3]; C12-15 alkyl benzoate alone (summary table)) [wt.-%],"solubility in the cosmetic solvent C12-15 alkyl benzoate ([3]; C12-15 alkyl benzoate alone, saturation, HPLC of supernatant) [wt.-%]",amount of 1:1 (w/w) mixture of PG-UVAB1 and diisopropyl sebacate needed to dissolve 0.5 g BMDBM ([4]; 1:1 (w/w) PG-UVAB1/diisopropyl sebacate) [g],amount of 1:1 (w/w) mixture of PG-UVAB2 and C12-15 alkyl benzoate necessary to dissolve 0.5 g BMDBM ([4]; 1:1 (w/w) PG-UVAB2/C12-15 alkyl benzoate) [g],Molecule
3,−4,−11,no re-crystallization occurred,at least 20 wt.-%,20,+13.5 wt.-%,+7 wt.-%,+54%,13,13,–,–,"CCCCC(CC)COc1ccc(-c2nc(-c3ccc(OC)cc3)nc(-c3ccc(OCC(CC)CCCC)cc3O)n2)c(O)c1 (stereo not shown) [BEMT, bis-ethylhexyloxyphenol methoxyphenyl triazine]"
–,–,–,–,–,–,–,–,–,–,–,1.4,1.5,butyl methoxydibenzoylmethane [BMDBM]
